Experimental data: paper PMC8206213, “An L-2-hydroxyglutarate biosensor based on specific transcriptional regulator LhgR” (Nature Communications, 2021)
“And” between values parts separate entries of the source, which are not always exact repeats. Identical values can stand only once.

Assays:
Assay type in all cases: binding, Pseudomonas putida W619
LHGFR0N3C [1] = assay: Influence of other compounds on the response of purified LHGFR0N3C to L-2-HG; conditions: Suppl. Fig. 9a, three replicates
Method: (§1) Purified L-2-HG biosensors and different compounds were diluted by 50 mM Tris-HCl buffer (pH 7.4), mixed together in a black 96-well plate at a volume ratio of 3:1, and the fluorescence intensities were measured using an EnSight microplate reader (PerkinElmer, USA) with excitation at 430 nm, emission at 485 nm (mTFP) and 528 nm (Venus). […] The [L-2-HG], Kd, and p refer to the L-2-HG concentration, apparent dissociation constant, and Hill slope, respectively. Emission spectra were recorded at 430 nm excitation, in steps of 2 nm. Excitation spectra were recorded using emission at 550 nm, excitation from 380 to 535 nm in steps of 2 nm.

LHGFR0N3C [2] = assay: Specificity of purified LHGFR0N3C, emission ratio with 240 μM compounds; conditions: 240 μM compound
Method: as §1

LHGFR0N7C [3] = assay: Influence of other compounds on the response of purified LHGFR0N7C to L-2-HG; conditions: Suppl. Fig. 9b, three replicates
Method: as §1

LHGFR0N7C [4] = assay: Specificity of purified LHGFR0N7C, emission ratio with 240 μM compounds; conditions: 240 μM compound
Method: as §1

[5] = L-2-HG alone or with the compound

| SMILES | Emission ratio (LHGFR0N3C [1]; [5]) | Emission ratio (LHGFR0N3C [2]) | Induction of emission ratio changes (LHGFR0N3C [2]) | Emission ratio (LHGFR0N7C [3]; [5]) | Emission ratio (LHGFR0N7C [4]) | Induction of emission ratio changes (LHGFR0N7C [4]) | Emission ratio (LHGFR0N3C [1]; 50 μM ATP) | Emission ratio (LHGFR0N3C [1]; 100 μM ATP) | Emission ratio (LHGFR0N3C [1]; 500 μM ATP) | Emission ratio (LHGFR0N3C [1]; 1 mM ATP) | Emission ratio (LHGFR0N3C [1]; 5 mM ATP) | Emission ratio (LHGFR0N7C [3]; 50 μM ATP) | Emission ratio (LHGFR0N7C [3]; 100 μM ATP) | Emission ratio (LHGFR0N7C [3]; 500 μM ATP) | Emission ratio (LHGFR0N7C [3]; 1 mM ATP) | Emission ratio (LHGFR0N7C [3]; 5 mM ATP) |
| --- | --- | --- | --- | --- | --- | --- | --- | --- | --- | --- | --- | --- | --- | --- | --- | --- |
| O=C(O)C[C@H](O)C(=O)O [L-Malate, L-malate] | 2.062 and 2.063 and 2.08 | 1.354 and 1.373 (2×) | None | 2.598 and 2.599 and 2.61 | 1.654 and 1.687 and 1.723 | None | – | – | – | – | – | – | – | – | – | – |
| O=C(O)/C=C(/CC(=O)O)C(=O)O [Cis-aconitate, cis-aconitate] | 2.04 and 2.059 and 2.056 | 1.358 and 1.383 and 1.3936 | None | 2.594 and 2.591 and 2.61 | 1.7035 and 1.722 and 1.738 | None | – | – | – | – | – | – | – | – | – | – |
| C[C@H](O)C(=O)O [L-Lactate, L-lactate] | 2.088 and 2.079 and 2.04 | 1.397 and 1.412 and 1.41 | None | 2.6205 and 2.619 and 2.644 | 1.748 and 1.739 and 1.741 | None | – | – | – | – | – | – | – | – | – | – |
| C[C@@H](O)C(=O)O [D-Lactate, D-lactate] | 2.084 and 2.089 and 2.108 | 1.395 | None | 2.595 and 2.609 and 2.633 | 1.7153 and 1.693 and 1.686 | None | – | – | – | – | – | – | – | – | – | – |
| Nc1ncnc2c1ncn2[C@@H]1O[C@H](COP(=O)(O)OP(=O)(O)OP(=O)(O)O)[C@@H](O)[C@H]1O [ATP] | – | – | – | – | – | – | 2.0763 and 2.03 and 2.053 | 2.022 and 2.017 and 2.045 | 2.063 (2×) and 2.059 | 2.142 and 2.082 and 2.1362 | 2.1045 and 2.1074 and 2.154 | 2.546 and 2.581 and 2.59 | 2.59 and 2.574 and 2.618 | 2.6191 and 2.584 and 2.589 | 2.6148 and 2.611 (2×) | 2.6574 and 2.624 and 2.63 |
| O=C(O)CC(=O)C(=O)O [Oxaloacetate] | 2.024 and 2.069 and 2.088 | 1.3879 and 1.4027 and 1.379 | None | 2.5106 and 2.58 and 2.608 | 1.671 (2×) and 1.68 | None | – | – | – | – | – | – | – | – | – | – |
| CC(=O)C(=O)O [Pyruvate, pyruvate] | 2.0125 and 2.04 and 2.083 | 1.366 and 1.361 and 1.386 | None | 2.56 and 2.596 and 2.595 | 1.667 and 1.6731 and 1.709 | None | – | – | – | – | – | – | – | – | – | – |
| O=C(O)/C=C/C(=O)O [Fumarate] | 1.9538 and 2.042 and 2.049 | 1.378 and 1.374 and 1.399 | None | 2.613 and 2.5931 and 2.59 | 1.695 and 1.71 and 1.714 | None | – | – | – | – | – | – | – | – | – | – |
| O=C(O)CC(O)(CC(=O)O)C(=O)O [Citrate] | 1.986 and 2.033 and 2.109 | 1.344 and 1.397 and 1.391 | None | 2.561 and 2.588 and 2.595 | 1.665 and 1.672 and 1.697 | None | – | – | – | – | – | – | – | – | – | – |
